Assay [1] concerns platelet aggregation induced by arachidonic acid (AA). The assay can be described thus: Antiplatelet assay, arachidonic acid-induced aggregation. Format: cell-based, rabbit. As to conditions: AA 100 μM, 37° C., 1 min preincubation, read-out: IC50, platelet aggregation induced by arachidonic acid (in vitro) (Table 6). On the procedure:
c. Antiplatelet assay. Blood, collected from the marginal ear vein of rabbits was mixed with EDTA to a final concentration of 6 mM and centrifuged at 90 g for 10 mm at room temperature to obtain platelet-rich plasma. The latter was further centrifuged at 500 g for 10 mm and the platelets were washed with Tyrode's solution without EDTA. After centrifugation at the same conditions, the platelets were suspended in Tyrode's solution with the following compositions (mM): NaCl (136.8), KCl (2.8), NaNCO3(11.9), MgCl2(1.1), NaH2PO4(0.33), CaCl2(1.0), and glucose (11.2). Platelet numbers were determined with a Coulter Counter (Model ZM) and adjusted to 4.5×10^8 platelets/ml.
Aggregation was measured by the turbidimetric method [O'brien, J. R. J. Clin. Pathol. 1962, 15,452] with a dual-channel Lumi aggregometer (Model 1020, Payton, Canada). All glass ware was siliconized. Test compounds were added one minute before the addition of the aggregation inducer and the platelet suspension was stirred at 900 rpm. The percentage of aggregation was calculated as previously described [Teng, C. M.; Chen, W. Y.; Ko, W. C.; Ouyang, C. Biochem. Biophys. Acta. 1987, 924, 375].

In assay [2] the test system is epidermoid carcinoma of the nasopharynx (KB). In words: In vitro cytotoxicity, KB. The note with it: Homo sapiens; for IC50: 96 h, read-out: ED50 KB; for inhibition at 20 µg/mL: read-out: Inhibition at highest test concentration (in brackets), KB.
The subject of assay [3] is melanoma (SKMEL-2). The assay can be described thus: In vitro cytotoxicity, SKMEL-2. As to conditions: for IC50 / inhibition at 20 µg/mL: Homo sapiens; for IC50: SK-MEL-2, 96 h, read-out: ED50 SKMEL-2; for inhibition at 20 µg/mL: SK-MEL-2, read-out: Inhibition at highest test concentration (in brackets), SKMEL-2; for Inhibition value of plateau-dose response (in brackets), SKMEL-2: inhibition plateaus over broad dose range.

In assay [4] the test system is lung carcinoma (A-549). The assay can be described thus: In vitro cytotoxicity, A-549. The note with it: Homo sapiens; for IC50: A549, 96 h, read-out: ED50 A-549; for inhibition at 20 µg/mL: A549, read-out: Inhibition at highest test concentration (in brackets), A-549.
In assay [5] the test system is bone (HOS). In words: In vitro cytotoxicity, HOS. As to conditions: Homo sapiens; for IC50: 96 h, read-out: ED50 HOS; for inhibition at 20 µg/mL: read-out: Inhibition at highest test concentration (in brackets), HOS.
Assay [6] relates to bovine brain tubulin. In words: Tubulin polymerization assay (antimicrotubule assay). The note with it: read-out: ITP (inhibition of tubulin polymerization) IC50; tubulin […] (12 μM), 26° C., 20 min.
In assay [7] the test system is human ovarian cancer (1A9). In words: In vitro cytotoxicity, 1A9. As to conditions: 96 h, read-out: ED50 1A9.
For assay [8], the system named is breast cancer (MCF-7). In words: In vitro cytotoxicity, MCF-7. The note with it: Homo sapiens; for IC50: MCF7, 96 h, read-out: ED50 MCF-7; for inhibition at 20 µg/mL: MCF7, read-out: Inhibition at highest test concentration (in brackets), MCF-7.
Assay [9] has as its system prostate cancer (PC3). In words: In vitro cytotoxicity, PC3. The note with it: Homo sapiens; for IC50: 96 h, read-out: ED50 PC3; for inhibition at 20 µg/mL: read-out: Inhibition at highest test concentration (in brackets), PC3.
Assay [10] relates to P-gp-expressing epidermoid carcinoma of the nasopharynx (KB-VIN). The assay can be described thus: In vitro cytotoxicity, KB-VIN. The note with it: Homo sapiens, KBVIN; for IC50: 96 h, read-out: ED50 KB-VIN.
Assay [11] has as its system ileocecal carcinoma (HCT-8). The assay can be described thus: In vitro cytotoxicity, HCT-8. The note with it: Homo sapiens; for IC50: HCT-8, 96 h, read-out: ED50 HCT-8; for inhibition at 20 µg/mL: HCT-8, read-out: Inhibition at highest test concentration (in brackets), HCT-8.
The mark [12] stands for this setting: Oryctolagus cuniculus, Platelet.

Results on 16 compounds are retold here after patent publication US6479499B1.

Values after ≈ are worked out from the molar mass of the structure shown. Read-outs that look alike come from different tables or passages of the source. Some results are limits rather than exact numbers.

Consider `CCn1c(-c2ccccc2)nc2ccccc2c1=O` [Compound 78, N^3-Ethyl-2-phenyl-4-quinazolinone], for which the IC50 in [1] (setting [12]) worked out at 184 µM.

Turning to `CC(=O)Oc1ccccc1C(=O)O` [Aspirin], the IC50 in [1] (setting [12]) stood at 20 µM.

With `COc1ccc(C2NC(=O)c3ccccc3N2)cc1OC` (racemic) [Compound 66, 2,3-Dihydro-2-(3′,4′-dimethoxyphenyl)-4-quinazolinone], the IC50 in assay [2] is greater than 20 µg/mL; in [3], greater than 20 µg/mL; in assay [4], greater than 20 µg/mL; in [5], greater than 20 µg/mL; in [6], greater than 40 µM; in assay [7], 14.6 µg/mL (≈ 51.4 µM). The IC50 in assay [8] was 20 µg/mL (≈ 70.3 µM); in assay [9], greater than 20 µg/mL; in [10] it was 16 µg/mL (≈ 56.3 µM); in assay [11], greater than 20 µg/mL. Besides, the inhibition at 20 µg/mL in assay [2] turned out to be 28%; in [3], 24%; in assay [4] it was 41%; in assay [5], 24%; in assay [9], 30%; in assay [11], 25%.

Consider `CCOC(=O)COc1nc(-c2ccccc2)nc2ccccc12` [Compound 71, 4-Ethoxycarbonylmethoxy-2-phenylquinazoline], for which the IC50 in assay [1] (setting [12]) worked out at 26.9 µM.

With `CCOc1nc(-c2ccccc2OC)nc2ccccc12` [Compound 74, 4-Ethoxy-2-(2′-methoxyphenyl)quinazoline], in assay [1] (setting [12]), the IC50 stood at 214 µM.

For `COc1ccc(C2NC(=O)c3ccccc3N2)cc1` (racemic) [Compound 62, 2,3-Dihydro-2-(4′-methoxyphenyl)-4-quinazolinone], the IC50 in assay [2] is greater than 20 µg/mL; in [3], greater than 20 µg/mL; in assay [4] it was greater than 20 µg/mL; in assay [5], greater than 20 µg/mL; in assay [6], greater than 40 µM; in assay [7], 20 µg/mL (≈ 78.7 µM). The IC50 in [8], in assay [9], in assay [10] and in assay [11] was greater than 20 µg/mL throughout. Also, the inhibition at 20 µg/mL was found to be 14% in assay [2]; 23% in assay [3]; 34% in assay [4]; 13% in assay [5]; 44% in assay [8]; 14% in assay [9]. The inhibition at 20 µg/mL in [10] (read-out: Inhibition at highest test concentration (in brackets), KB-VIN) came out at 39%; in assay [11] it was 19%.

As to `COc1ccc(C2NC(=O)c3ccccc3N2)c(OC)c1` (racemic) [Compound 64, 2,3-Dihydro-2-(2′,4′-dimethoxyphenyl)-4-quinazolinone], the IC50 in [2] is greater than 20 µg/mL; in assay [3] it was greater than 20 µg/mL; in assay [4], greater than 20 µg/mL; in assay [5], greater than 20 µg/mL; in assay [6] it was greater than 40 µM; in assay [7] it was 12.5 µg/mL (≈ 44 µM). Moreover, the IC50 in assay [8] is greater than 20 µg/mL; in assay [9], greater than 20 µg/mL; in [10], 7.6 µg/mL (≈ 26.7 µM); in assay [11], greater than 20 µg/mL. Also, the inhibition at 20 µg/mL in assay [2] worked out at 43%; in assay [3], 37%; in [4], 43%; in [5], 40%; in assay [8], 44%; in assay [9] it was 28%. Moreover, the inhibition at 20 µg/mL in assay [11] is 29%.

Consider `Cn1c(-c2ccccc2)nc2ccccc2c1=O` [Compound 77, N^3-methyl-2-phenyl-4-quinazolinone], for which, in assay [1] (setting [12]), the IC50 was 183 µM.

As for `CCOc1nc(-c2cccc(OC)c2)nc2ccccc12` [Compound 75, 4-Ethoxy-2-(3′-methoxyphenyl)quinazoline], in assay [1] (setting [12]), the IC50 stood at 69.3 µM.

Regarding `COc1ccc2c(c1)c(CC(=O)O)c(C)n2C(=O)c1ccc(Cl)cc1` [Indomethacin], the IC50 in assay [1] (setting [12]) was 0.25 µM.

In the case of “4-Ethoxycarbonylbutoxy-2-phenylquinazoline [Compound 73]”, in [1], the IC50 was 173 µM.

Consider `CCOC(=O)CCCOc1nc(-c2ccccc2)nc2ccccc12` [Compound 72, 4-Ethoxycarbonylpropoxy-2-phenylquinazoline], for which the IC50 in assay [1] (setting [12]) stood at 30.7 µM.

As to “N^3-Ethoxycarbonylmethoxy-2-phenyl-4-quinazolinone [Compound 79]”, the IC50 in assay [1] is greater than 270 µM.

As to `CCOc1nc(-c2ccc(OC)cc2)nc2ccccc12` [Compound 76, 4-Ethoxy-2-(4′-methoxyphenyl)quinazoline], the IC50 in [1] (setting [12]) came to 5.36 µM.

Take `COc1ccccc1C1NC(=O)c2ccccc2N1` (racemic) [Compound 60, 2,3-Dihydro-2-(2′-methoxyphenyl)-4-quinazolinone]: the IC50 is greater than 20 µg/mL in [2]; less than 20 µg/mL in assay [3]; greater than 20 µg/mL in assay [4]; greater than 20 µg/mL in [5]; greater than 40 µM in assay [6]; 14.7 µg/mL (≈ 57.8 µM) in [7]. The IC50 in [8] was greater than 20 µg/mL; in assay [9], greater than 20 µg/mL; in assay [10], 10.2 µg/mL (≈ 40.1 µM); in assay [11] it was greater than 20 µg/mL. Besides, the inhibition at 20 µg/mL in assay [2] stood at 32%; in assay [4], 44%; in assay [5] it was 38%; in assay [8], 48%; in [9] it was 30%; in assay [11], 21%. In addition, the “Inhibition value of plateau-dose response (in brackets), SKMEL-2” value in assay [3] turned out to be 52%.

With `COc1cccc(C2NC(=O)c3ccccc3N2)c1OC` (racemic) [Compound 63, 2,3-Dihydro-2-(2′,3′-dimethoxyphenyl)-4-quinazolinone], the IC50 is greater than 20 µg/mL in [2]; less than 20 µg/mL in assay [3]; greater than 20 µg/mL in assay [4]; greater than 20 µg/mL in [5]; greater than 40 µM in assay [6]; 11.4 µg/mL (≈ 40.1 µM) in assay [7]. Moreover, the IC50 was greater than 20 µg/mL in assay [8], greater than 20 µg/mL in assay [9], 8.6 µg/mL (≈ 30.2 µM) in assay [10] and greater than 20 µg/mL in assay [11]. Besides, the inhibition at 20 µg/mL in [2] was 41%; in assay [4] it was 39%; in [5], 34%; in assay [8] it was 40%; in [9], 20%; in assay [11] it was 39%. Besides, the “Inhibition value of plateau-dose response (in brackets), SKMEL-2” value in assay [3] is recorded as 53%.
